Each compound was assayed against BCL-2 recombinant protein (Homo sapiens, UniProt P10415) (assay: Cell free Bcl-2:Bak affinity assay (Bcl-2 Bak), HTRF competition of FAM-Bak peptide). Conditions: 10-concentration IC50 mode, 4 nM BCL-2 recombinant protein, 100 nM FAM-Bak, read-out: potency (IC50).
Sequence of BCL-2 recombinant protein (P10415 whole entry): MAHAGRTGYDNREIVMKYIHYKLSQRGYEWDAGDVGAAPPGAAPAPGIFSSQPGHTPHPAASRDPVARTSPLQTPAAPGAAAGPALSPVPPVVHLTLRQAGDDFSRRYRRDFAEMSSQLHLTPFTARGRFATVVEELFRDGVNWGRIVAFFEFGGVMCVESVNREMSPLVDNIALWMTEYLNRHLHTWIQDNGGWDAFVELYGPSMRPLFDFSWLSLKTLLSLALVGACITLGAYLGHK
Format: binding
In short: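 Compounds in 10-point 3-fold dilution preincubated 10 min at RT with 4 nM GST-BCL-2 (20 mM K phosphate pH 7.5, 50 mM NaCl, 1 mM EDTA, 0.005% Triton X-100), then 100 nM FAM-Bak 10 min, anti-GST-Tb added, 60 min RT dark. HTRF read; % inhibition vs DMSO and positive control, IC50 from curve fit.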
`Cc1cn(C)nc1C(=O)NS(=O)(=O)c1ccc(N2CCN(CC3=C(c4ccc(Cl)cc4)CC(C)(C)CC3)CC2)cc1Oc1cnc2[nH]ccc2c1` [Example 76, N-[4-[4-[[2-(4-chlorophenyl)-4,4-dimethylcyclohexen-1-yl]methyl]piperazin-1-yl]-2-(1H-pyrrolo[2,3-b]pyridin-5-yloxy)phenyl]sulfonyl-1,4-dimethylpyrazole-3-carboxamide] showed an IC50 of 0.01 to 0.1 µM.
In the case of `Cc1cc(C(=O)NS(=O)(=O)c2ccc(N3CCN(CC4=C(c5ccc(Cl)cc5)CC(C)(C)CC4)CC3)cc2Oc2cnc3[nH]ccc3c2)nn1C` [Example 77, N-[4-[4-[[2-(4-chlorophenyl)-4,4-dimethylcyclohexen-1-yl]methyl]piperazin-1-yl]-2-(1H-pyrrolo[2,3-b]pyridin-5-yloxy)phenyl]sulfonyl-1,5-dimethylpyrazole-3-carboxamide], the IC50 is reported as 0.1 to 1 µM.
Work on `Cc1nn(C)c(C(=O)NS(=O)(=O)c2ccc(N3CCN(CC4=C(c5ccc(Cl)cc5)CC(C)(C)CC4)CC3)cc2Oc2cnc3[nH]ccc3c2)c1C` [Example 78, N-[4-[4-[[2-(4-chlorophenyl)-4,4-dimethylcyclohexen-1-yl]methyl]piperazin-1-yl]-2-(1H-pyrrolo[2,3-b]pyridin-5-yloxy)phenyl]sulfonyl-2,4,5-trimethylpyrazole-3-carboxamide] yielded an IC50 of 0.1 to 1 µM.
`Cc1cc(C(=O)NS(=O)(=O)c2ccc(N3CCN(CC4=C(c5ccc(Cl)cc5)CC(C)(C)CC4)CC3)cc2Oc2cnc3[nH]ccc3c2)cc([N+](=O)[O-])c1` [Example 79, N-[4-[4-[[2-(4-chlorophenyl)-4,4-dimethylcyclohexen-1-yl]methyl]piperazin-1-yl]-2-(1H-pyrrolo[2,3-b]pyridin-5-yloxy)phenyl]sulfonyl-3-methyl-5-nitrobenzamide] showed an IC50 of 0.01 to 0.1 µM.
For `Cc1c(Cl)c(C(=O)NS(=O)(=O)c2ccc(N3CCN(CC4=C(c5ccc(Cl)cc5)CC(C)(C)CC4)CC3)cc2Oc2cnc3[nH]ccc3c2)cc([N+](=O)[O-])c1NCC1CCOCC1` [Example 80, 2-Chloro-N-[4-[4-[[2-(4-chlorophenyl)-4,4-dimethylcyclohexen-1-yl]methyl]piperazin-1-yl]-2-(1H-pyrrolo[2,3-b]pyridin-5-yloxy)phenyl]sulfonyl-3-methyl-5-nitro-4-(oxan-4-ylmethylamino)benzamide], the IC50 was less than 0.01 µM.
`Cc1c(Cl)c(C(=O)NS(=O)(=O)c2ccc(N3CCN(CC4=C(c5ccc(Cl)cc5)CC(C)(C)CC4)CC3)cc2Oc2cnc3[nH]ccc3c2)cc([N+](=O)[O-])c1OCC1CCOCC1` [Example 81, 2-Chloro-N-[4-[4-[[2-(4-chlorophenyl)-4,4-dimethylcyclohexen-1-yl]methyl]piperazin-1-yl]-2-(1H-pyrrolo[2,3-b]pyridin-5-yloxy)phenyl]sulfonyl-3-methyl-5-nitro-4-(oxan-4-ylmethoxy)benzamide] gave an IC50 of less than 0.01 µM.
Work on `CC1(C)CCC(CN2CCN(c3ccc(S(=O)(=O)NC(=O)c4ccc(COc5ccc(Cl)cc5)c([N+](=O)[O-])c4)c(Oc4cnc5[nH]ccc5c4)c3)CC2)=C(c2ccc(Cl)cc2)C1` [Example 82] yielded an IC50 of less than 0.01 µM.
`CC1(C)CCC(CN2CCN(c3ccc(S(=O)(=O)NC(=O)c4ccc(COc5ccc(Cl)cc5)c(F)c4)c(Oc4cnc5[nH]ccc5c4)c3)CC2)=C(c2ccc(Cl)cc2)C1` [Example 83, 4-[(4-Chlorophenoxy)methyl]-N-[4-[4-[[2-(4-chlorophenyl)-4,4-dimethylcyclohexen-1-yl]methyl]piperazin-1-yl]-2-(1H-pyrrolo[2,3-b]pyridin-5-yloxy)phenyl]sulfonyl-3-fluorobenzamide] gave an IC50 of 0.01 to 0.1 µM.
With `COCc1cc(C(=O)NS(=O)(=O)c2ccc(N3CCN(CC4=C(c5ccc(Cl)cc5)CC(C)(C)CC4)CC3)cc2Oc2cnc3[nH]ccc3c2)cc([N+](=O)[O-])c1` [Example 85, N-[4-[4-[[2-(4-chlorophenyl)-4,4-dimethylcyclohexen-1-yl]methyl]piperazin-1-yl]-2-(1H-pyrrolo[2,3-b]pyridin-5-yloxy)phenyl]sulfonyl-3-(methoxymethyl)-5-nitrobenzamide] the IC50 was 0.01 to 0.1 µM.
For `CC1(C)CCC(CN2CCN(c3ccc(S(=O)(=O)NC(=O)c4cc(COc5ccc(Cl)cc5)cc([N+](=O)[O-])c4)c(Oc4cnc5[nH]ccc5c4)c3)CC2)=C(c2ccc(Cl)cc2)C1` [Example 86, 3-[(4-Chlorophenoxy)methyl]-N-[4-[4-[[2-(4-chlorophenyl)-4,4-dimethylcyclohexen-1-yl]methyl]piperazin-1-yl]-2-(1H-pyrrolo[2,3-b]pyridin-5-yloxy)phenyl]sulfonyl-5-nitrobenzamide], the IC50 was 0.01 to 0.1 µM.
For `COCc1ccc(C(=O)NS(=O)(=O)c2ccc(N3CCN(CC4=C(c5ccc(Cl)cc5)CC(C)(C)CC4)CC3)cc2Oc2cnc3[nH]ccc3c2)cc1[N+](=O)[O-]` [Example 87, N-[4-[4-[[2-(4-chlorophenyl)-4,4-dimethylcyclohexen-1-yl]methyl]piperazin-1-yl]-2-(1H-pyrrolo[2,3-b]pyridin-5-yloxy)phenyl]sulfonyl-4-(methoxymethyl)-3-nitrobenzamide], the IC50 was 0.01 to 0.1 µM.
In the case of `Cc1c(Cl)c(C(=O)NS(=O)(=O)c2ccc(N3CCN(CC4=C(c5ccc(Cl)cc5)CC(C)(C)CC4)CC3)cc2Oc2cnc3[nH]ccc3c2)cc([N+](=O)[O-])c1OCc1ccc(Cl)cc1` [Example 88, 2-Chloro-N-[4-[4-[[2-(4-chlorophenyl)-4,4-dimethylcyclohexen-1-yl]methyl]piperazin-1-yl]-2-(1H-pyrrolo[2,3-b]pyridin-5-yloxy)phenyl]sulfonyl-4-[(4-chlorophenyl)methoxy]-3-methyl-5-nitrobenzamide], the IC50 is reported as less than 0.01 µM.
In the case of `CC1(C)CCC(CN2CCN(c3ccc(S(=O)(=O)NC(=O)c4ccc(COc5ccc(Cl)cc5)c(S(C)(=O)=O)c4)c(Oc4cnc5[nH]ccc5c4)c3)CC2)=C(c2ccc(Cl)cc2)C1` [Example 89, 4-[(4-chlorophenoxy)methyl]-N-[4-[4-[[2-(4-chlorophenyl)-4,4-dimethylcyclohexen-1-yl]methyl]piperazin-1-yl]-2-(1H-pyrrolo[2,3-b]pyridin-5-yloxy)phenyl]sulfonyl-3-methylsulfonylbenzamide], the IC50 is reported as 0.1 to 1 µM.
In the case of `CC1(C)CCC(CN2CCN(c3ccc(S(=O)(=O)NC(=O)c4ccc(CN5CCOCC5)c([N+](=O)[O-])c4)c(Oc4cnc5[nH]ccc5c4)c3)CC2)=C(c2ccc(Cl)cc2)C1` [Example 90, N-[4-[4-[[2-(4-chlorophenyl)-4,4-dimethylcyclohexen-1-yl]methyl]piperazin-1-yl]-2-(1H-pyrrolo[2,3-b]pyridin-5-yloxy)phenyl]sulfonyl-4-(morpholin-4-ylmethyl)-3-nitrobenzamide], the IC50 is reported as 0.1 to 1 µM.
`CC1(C)CCC(CN2CCN(c3ccc(S(=O)(=O)NC(=O)c4ccc(CNc5ccc(Cl)cc5)c([N+](=O)[O-])c4)c(Oc4cnc5[nH]ccc5c4)c3)CC2)=C(c2ccc(Cl)cc2)C1` [Example 91, 4-[(4-chloroanilino)methyl]-N-[4-[4-[[2-(4-chlorophenyl)-4,4-dimethylcyclohexen-1-yl]methyl]piperazin-1-yl]-2-(1H-pyrrolo[2,3-b]pyridin-5-yloxy)phenyl]sulfonyl-3-nitrobenzamide] showed an IC50 of 0.01 to 0.1 µM.
`CC1(C)CCC(CN2CCN(c3ccc(S(=O)(=O)NC(=O)c4ccc5ccsc5n4)c(Oc4cnc5[nH]ccc5c4)c3)CC2)=C(c2ccc(Cl)cc2)C1` [Example 92, N-[4-[4-[[2-(4-chlorophenyl)-4,4-dimethylcyclohexen-1-yl]methyl]piperazin-1-yl]-2-(1H-pyrrolo[2,3-b]pyridin-5-yloxy)phenyl]sulfonylthieno[2,3-b]pyridine-6-carboxamide] was tested, and the IC50 was 0.1 to 1 µM.
In the case of `CC1(C)CCC(CN2CCN(c3ccc(S(=O)(=O)NC(=O)c4ccnc5sccc45)c(Oc4cnc5[nH]ccc5c4)c3)CC2)=C(c2ccc(Cl)cc2)C1` [Example 93, N-[4-[4-[[2-(4-chlorophenyl)-4,4-dimethylcyclohexen-1-yl]methyl]piperazin-1-yl]-2-(1H-pyrrolo[2,3-b]pyridin-5-yloxy)phenyl]sulfonylthieno[2,3-b]pyridine-4-carboxamide], the IC50 is reported as 0.01 to 0.1 µM.
For `CC1(C)CCC(CN2CCN(c3ccc(S(=O)(=O)NC(=O)c4ccc([N+](=O)[O-])c(COc5ccc(Cl)cc5)c4)c(Oc4cnc5[nH]ccc5c4)c3)CC2)=C(c2ccc(Cl)cc2)C1` [Example 95, 3-[(4-Chlorophenoxy)methyl]-N-[4-[4-[[2-(4-chlorophenyl)-4,4-dimethylcyclohexen-1-yl]methyl]piperazin-1-yl]-2-(1H-pyrrolo[2,3-b]pyridin-5-yloxy)phenyl]sulfonyl-4-nitrobenzamide], the IC50 was 0.1 to 1 µM.
Compound `CC1(C)CCC(CN2CCN(c3ccc(S(=O)(=O)NC(=O)c4ccc(CNC5CCOCC5)c([N+](=O)[O-])c4)c(Oc4cnc5[nH]ccc5c4)c3)CC2)=C(c2ccc(Cl)cc2)C1` [Example 96, N-[4-[4-[[2-(4-chlorophenyl)-4,4-dimethylcyclohexen-1-yl]methyl]piperazin-1-yl]-2-(1H-pyrrolo[2,3-b]pyridin-5-yloxy)phenyl]sulfonyl-3-nitro-4-[(oxan-4-ylamino)methyl]benzamide] has an IC50 of 0.01 to 0.1 µM.
`Cc1cc(S(C)(=O)=O)cc(C(=O)NS(=O)(=O)c2ccc(N3CCN(CC4=C(c5ccc(Cl)cc5)CC(C)(C)CC4)CC3)cc2Oc2cnc3[nH]ccc3c2)n1` [Example 97, N-[4-[4-[[2-(4-Chlorophenyl)-4,4-dimethylcyclohexen-1-yl]methyl]piperazin-1-yl]-2-(1H-pyrrolo[2,3-b]pyridin-5-yloxy)phenyl]sulfonyl-6-methyl-4-methylsulfonylpyridine-2-carboxamide] showed an IC50 greater than 1 µM.
`CNc1c([N+](=O)[O-])cc(C(=O)NS(=O)(=O)c2ccc(N3CCN(CC4=C(c5ccc(Cl)cc5)CC(C)(C)CC4)CC3)cc2Oc2cnc3[nH]ccc3c2)c(Cl)c1C` [Example 98, 2-chloro-N-[4-[4-[[2-(4-chlorophenyl)-4,4-dimethylcyclohexen-1-yl]methyl]piperazin-1-yl]-2-(1H-pyrrolo[2,3-b]pyridin-5-yloxy)phenyl]sulfonyl-3-methyl-4-(methylamino)-5-nitrobenzamide] was tested, and the IC50 was 0.01 to 0.1 µM.
